In patent US20240293430A1, “WITHAFERIN A AND IMMUNE CHECKPOINT BLOCKER COMBINATION THERAPIES” (University of South Florida, priority 2023, published 2024):

Assays:
LLC flank tumors = test: LLC syngeneic mouse model, tumor growth; assay type: in vivo, C57BL/6 mice; details: i.p. every other day, five treatments; WFA 5 mg/kg, α-PD-L1 200 μg/mouse
Method: FIGS. 5A-5G depict that WFA sensitizes flank tumors to α-PD-L1 therapy and targets immunosuppressive MDSCs and T-regs. (FIG. 5A) Establishment of LLC flank tumors and treatment schedule. (FIG. 5B) Tumor volume measurement in mm^3 and tumor weight at the endpoint of the experiment. (FIG. 5C) Change in the levels of ecto-CRT in tumors was measured using flow cytometry. (FIGS. 5D-5G) Flow cytometry was used to determine the change in immune cell infiltration in collected tumors. […] Moreover, WFA reduced the immunosuppressive T regs (FIG. 5F) and CD11b+Gr1+MDSC (FIG. 5G) populations. The means of two independent experiments ±SEM are shown, and the statistical significance was calculated using one-way ANOVA and a Fisher LSD post hoc test where * and #represent p<0.05 and ** and ##represent p<0.01. * Symbols refer to the difference between the vehicle control and WFA, while #refers to comparisons between the vehicle control and WFA+α-PD-L1 combination.
C57BL/6 mice were purchased from the Jackson Laboratory (Bar Harbor, ME, USA) and acclimated for a week. To establish the LLC syngeneic tumors, C57BL/6 mice were injected with a half million cells on the right flank and monitored until tumors were first palpable (2-3 mm diameter). […] Tumor volumes (mm^3) were calculated using the equation (length^2 x width/2), where the length is defined as the bigger tumor dimension. […]

[1] = test system: NSCLC cell lines (LLC, H1650, A549); test: Annexin V apoptosis assay (flow cytometry); assay type: cell-based, mouse (LLC), human (H1650; details: 48 h, compared to untreated cells
Method: FIGS. 1A-lE depict that WFA induces ER stress-mediated apoptosis in NSCLC cell lines. (FIG. 1A) NSCLC cells were plated on 96-well plates and treated with different concentrations of WFA ([…]) in triplicates. Forty-eight hours post-treatment, cell viability was determined using Cell Titer-Glo assay. Luminescence values were normalized to control untreated cells and IC50 values are represented as the mean of two independent experiments ±SEM. (FIG. 1B) NSCLC cells were treated WFA for forty-eight hours, then collected to measure apoptotic cell death using Annexin V assay in LLC cells, H1650 cells, and A549 cells. Percentages of early (annexin*DAPI-) and late (annexin*DAPI+) apoptotic cells are represented as means of two separate experiments ±SEM and statistical significance was calculated using one-way ANOVA and a Fisher LSD post hoc test was used to compare the mean of each group to that of the control group. (FIGS. 1C-1D) WFA treated cells were collected in Trizol and total RNA was isolated to measure the levels of Bax (FIG. 1C) and Bcl2 (FIG. 1D) mRNA using qRT-PCR. PCR experiments were repeated at least twice, and one representative experiment is shown as mean±SEM of the technical replicates. […] The quantification of western blot band density was performed using Image J software v.1.54d and normalized to housekeeping control protein in LLC cells (0-actin). […]

With `CC1=C(CO)C(=O)O[C@@H]([C@@H](C)[C@H]2CC[C@H]3[C@@H]4C[C@H]5O[C@]56[C@@H](O)C=CC(=O)[C@]6(C)[C@H]4CC[C@]23C)C1` [WFA, Withaferin A] the “tumor size / tumor growth” value (LLC flank tumors) was “non-significant reduction” and the “early and late apoptotic cell populations” value [1] was “significant increase”.
